Assay results reported in patent publication US20220370546A1, “PEPTIDE, COMPOSITION, AND METHOD FOR TREATING, PREVENTING, OR AMELIORATING MOOD DISORDER” (KYOTO UNIVERSITY, priority 2019, published 2022).

System: ddY mice
Assay: Tail suspension test (evaluation of motivation-enhancing effect)
Format: in vivo
Details: oral, in saline, n=5; 0.2 μmol/kg body weight; tail suspension test 30 minutes after administration
Procedure: Each of the prepared peptides was administered to mice (ddY mice (5-week-old male mice 24 to 28 g in body weight)) by the method shown below. The mice were then subjected to a tail suspension test for the evaluation of a motivation-enhancing effect.
Each peptide was dissolved in saline. The solution was orally administered to mice (n=5) such that each of peptides 3, 4, and 8 was administered in a dose of 0.3 mg/kg body weight and each of peptides 1, 2, 5, 6, and 7 was administered in a dose of 0.2 μmol/kg body weight. Control mice (n=5) were orally administered with only saline. Each of the mice was subjected to a tail suspension test in which the peptide of the present invention was evaluated for its efficacy to enhance motivation.
Thirty minutes after the administration of the peptide, each mouse was suspended with its tail fixed 30 cm above the floor. Subsequently, during a period of 6 minutes from the start of the test (0 minutes), the time (immobility time) during which the mouse remained in a motionless state, observed after the start of escape behavior, was measured, and the measurements were averaged. The motionless state is known as “despair state”. […] This means that materials effective in enhancing motivation in this test may be effective in treating, preventing, or ameliorating mood disorders. […]

Substance | motivation-enhancing effect
QSQ [Peptide 1] | particularly high level of motivation-enhancing effect
SQK [Peptide 2] | particularly high level of motivation-enhancing effect
